According to patent publication US20250082674A1, “METHODS OF TREATING COPPER METABOLISM-ASSOCIATED DISEASES OR DISORDERS” (priority 2021, published 2025):
Like-named read-outs stand apart in the source and are kept apart here.

Experiments:
[1] = test system: patients with Wilson disease (WD); assay: Study 301: Clinical Global Impression scales (CGI-I, CGI-S); type: in vivo, human
Source text: Clinical Global Impression-[…]: The Clinical Global Impression (CGI) rating scales were commonly used measures of symptom severity, treatment response, and the efficacy of treatments in treatment studies of adult and pediatric patients with mental disorders.
The Clinical Global Impression-Severity scale (CGI-S) is a 7-point scale that requires the clinician to rate the severity of the patient's illness at the time of assessment, relative to the clinician's past experience with patients who have the same diagnosis. Considering total clinical experience, a patient was assessed on severity of illness at the time of rating as: 1, normal, not at all ill; 2, borderline ill; 3, mildly ill; 4, moderately ill; 5, markedly ill; 6, severely ill; or 7, extremely ill.
While transformed CGI-I (TCGI-I) assesses how the WD patients condition changed compared to baseline, CGI-I may indicate the overall clinical improvement of the patients in the study compared to baseline for each treatment arm.

patients with WD = test system: patients with WD
Source text: All patients who completed the 24-week Study Period were enrolled in a 36-month Extension Period.

copper = test system: copper
Experimental: Study 204 is registered with ClinicalTrials.gov, number NCT04573309, and is described in Example 1 of U.S. Provisional Patent Application No. 63/237,120, filed Aug. 25, 2021, and incorporated by reference herein. […] The participants remained on a Cu-controlled diet, and Cu and Mo balance were measured on all intake (i.e., investigational agent, food and fluids) and all output (urine and feces). The Cu and Mo concentration of each sample was determined by inductively coupled plasma mass spectrometry (ICP-MS). Copper and Mo content of all intake and output was calculated based on the volume or weight of intake and output and the concentration of representative samples.
Collection periods for feces and urine varied in duration from 3 to 15 days to support assessment of both Cu and Mo balance before and at steady state for both 15 mg and 30 mg. Equilibration periods on Cu/Mo-controlled diets were a minimum of 48 hours. Copper balance was calculated as the mean daily Cu balance over each of the 4 collection periods. The interpretation of Cu balance was based on the criteria previously established when undertaking Cu balance studies with zinc treatment.
These participants had all intake (food and drink) and output (urine and feces) collected from Day-4 through Day-1 (baseline), from Day 1 through Day 8, and Day 25 through Day 39.

[2] = test system: patients with Wilson disease (WD); assay: Study 301: Unified Wilson Disease Rating Scale (UWDRS Parts II, III); type: in vivo, human
Experimental: The UWDRS scoring system was developed specifically for the motor and movement disorders associated with chronic copper neurotoxicity in WD. Some individual items/subscales of the UWDRS Part III (arising from a chair, gait, handwriting, and speech) in addition to the UWDRS Parts I, II, and III overall, were assessed to further define the range of burdensome signs and symptoms of WD, so as to further understand the assessment of treatment effects on patients with WD. The UWDRS scores for consciousness (Part I) and abnormal neurologic examination findings (Part III) will be determined by a trained neurologist rater who is blinded to study treatment randomization. These scores were used to provide a rigorous dataset for evaluating changes from baseline.
Unified Wilson Disease Rating Scale (Parts I, II, and III): The UWDRS is a clinical rating scale designed to evaluate the neurological manifestations of WD that generally can be divided into 3 movement disorder syndromes: dystonic, ataxic, and Parkinsonian syndrome. The UWDRS comprises 3 parts: UWDRS Part I (level of consciousness, item 1), UWDRS Part II (a patient-reported review of daily activity items [disability], items 2 to 11), and UWDRS Part III (a detailed neurological examination, items 12 to 34).
The UWDRS Part I and Part III were assessed by a neurologist who is blinded to the treatment randomization, while UWDRS Part II may be reported to a non-blinded member of the study team by the patient, family member, or caregiver. The UWDRS has not been formally evaluated in adolescents. However, the components of Part I (level of consciousness), Part II (patient or caregiver-reported disability) and Part III (neurologic examination findings) were not fundamentally different between adults and adolescents. Patients aged 12 years and older were expected to be able to comply with UWDRS assessments.
There were trends toward stability/improvement for both treatment groups. […] As approximately 50% of patients had baseline UWDRS scores of 0, and those patients that did have scores greater than zero were relatively low in the respective UWDRS Part II (score range: 0-40) and UWDRS Part III (score range: 0-175) scale range, there was little room for improvement.

[3] = Study 204, Days 1-8 (Accumulation 15 mg/day)
[4] = Study 204, Days 25-28 (Steady State 15 mg/day)
[5] = Study 204, Days 31-35 (Accumulation 30 mg/day)
[6] = Study 204, Days 36-39 (Steady State 30 mg/day)
[7] = Study 301, patients symptomatic at baseline, Cohort 1
[8] = Study 301, patients symptomatic at baseline, Cohort 2
[9] = Study 301, patients symptomatic at baseline, Overall

Bis-choline tetrathiomolybdate [BC-TTM]
CGI-I scores at week 48 versus SoC ([1]; Study 301, FIG. 22): improvements | CGI-S (1-7, 1 is normal), Change from Baseline at 48 weeks, Mean ([1]; Study 301, Full Analysis Set): −0.5 | CGI-S, Difference at 48 weeks, LSM (SE), BC-TTM vs SoC ([1]; Study 301, Full Analysis Set): −0.2 (0.13) | T-CGI-I (−3 to 3, −3 is very much improved) at 48 weeks, Mean ([1]; Study 301, Full Analysis Set): −0.7 | T-CGI-I, Difference at 48 weeks, LSM (SE), BC-TTM vs SoC ([1]; Study 301, Full Analysis Set): −0.3 (0.15) | liver status, Modified Nazer Score (patients with WD; Study 201): stabilized or improved in the majority of patients | neurological status, change from baseline in UWDRS Part III (patients with WD; Study 201, p<0.0001): significant improvements | patient-reported disability, change from baseline in UWDRS Part II (patients with WD; Study 201, p<0.001): significant improvements | participants with total cholesterol increase above the ULN (patients with WD; human, in vivo): 7 participants | patients with reversible liver (function) test elevations (patients with WD; human, in vivo): 39% | tolerability (patients with WD; human, in vivo): generally well-tolerated | Daily Net Copper Balance, Change from Baseline, Median (IQR) (copper; [3]): −0.4291 (0.2176) mg | Daily Net Copper Balance, Value, Mean (SD) (copper; [3]): 0.7654 (0.3538) mg | Daily Net Copper Balance, Value, Median (IQR) (copper; [3]): 0.6678 (0.6871) mg | Increase from Baseline in Average Daily Fecal Copper Excretion, Mean (SD) (copper; [3]): 0.3278 (0.319) mg | Increase from Baseline in Average Daily Urine Copper Excretion, Mean (SD) (copper; [3]): −0.0108 (0.01119) mg | Daily Net Copper Balance, Change from Baseline, Median (IQR) (copper; [4]): −0.1459 (1.0434) mg | Daily Net Copper Balance, Value, Mean (SD) (copper; [4]): 0.7638 (0.9138) mg | Daily Net Copper Balance, Value, Median (IQR) (copper; [4]): 1.1434 (1.7052) mg | Increase from Baseline in Average Daily Fecal Copper Excretion, Mean (SD) (copper; [4]): 0.4931 (0.4955) mg | Increase from Baseline in Average Daily Urine Copper Excretion, Mean (SD) (copper; [4]): 0.1042 (0.08556) mg | Daily Net Copper Balance, Change from Baseline, Median (IQR) (copper; [5]): −0.3707 (0.1093) mg | Daily Net Copper Balance, Value, Mean (SD) (copper; [5]): 0.8577 (0.3427) mg | Daily Net Copper Balance, Value, Median (IQR) (copper; [5]): 0.8312 (0.6838) mg | Increase from Baseline in Average Daily Fecal Copper Excretion, Mean (SD) (copper; [5]): 0.3879 (0.4193) mg | Increase from Baseline in Average Daily Urine Copper Excretion, Mean (SD) (copper; [5]): 0.0744 (0.05427) mg | Daily Net Copper Balance, Change from Baseline, Median (IQR) (copper; [6]): −0.4225 (0.2275) mg | Daily Net Copper Balance, Value, Mean (SD) (copper; [6]): 0.8582 (0.2565) mg | Daily Net Copper Balance, Value, Median (IQR) (copper; [6]): 0.7986 (0.5024) mg | Increase from Baseline in Average Daily Fecal Copper Excretion, Mean (SD) (copper; [6]): 0.0899 (0.2021) mg | Increase from Baseline in Average Daily Urine Copper Excretion, Mean (SD) (copper; [6]): 0.1042 (0.04328) mg | Daily Net Copper Balance, Change from Baseline, Mean (SD) (copper; Study 204, Table 10, Days 1-8 (Accumulation 15 mg/day)): −0.4848 (0.119) mg | Daily Net Copper Balance, Change from Baseline, Mean (SD) (copper; Study 204, Table 10, Days 25-28 (Steady State 15 mg/day)): −0.4865 (0.5993) mg | Daily Net Copper Balance, Change from Baseline, Mean (SD) (copper; Study 204, Table 10, Days 31-35 (Accumulation 30 mg/day)): −0.3925 (0.05781) mg | Daily Net Copper Balance, Change from Baseline, Mean (SD) (copper; Study 204, Table 10, Days 36-39 (Steady State 30 mg/day)): −0.3921 (0.1168) mg | Decrease from Baseline in Average Daily Net Copper Balance, Change from Baseline Mean (SD) (copper; Study 204, Table 13, Days 1-8 (Accumulation 15 mg/day)): −0.4848 (0.119) mg | Decrease from Baseline in Average Daily Net Copper Balance, Change from Baseline Mean (SD) (copper; Study 204, Table 13, Days 1-39): −0.448 (0.1469) mg | Decrease from Baseline in Average Daily Net Copper Balance, Change from Baseline Mean (SD) (copper; Study 204, Table 13, Days 25-28 (Steady State 15 mg/day)): −0.6381 (0.7673) mg | Decrease from Baseline in Average Daily Net Copper Balance, Change from Baseline Mean (SD) (copper; Study 204, Table 13, Days 31-35 (Accumulation 30 mg/day)): −0.3925 (0.05781) mg | Decrease from Baseline in Average Daily Net Copper Balance, Change from Baseline Mean (SD) (copper; Study 204, Table 13, Days 36-39 (Steady State 30 mg/day)): −0.2765 (0.3138) mg | UWDRS Part II (0-40), Change from Baseline at 48 weeks, Mean ([2]; Study 301, Full Analysis Set): −0.6 | UWDRS Part II (0-40), Difference at 48 weeks, LSM (SE), BC-TTM vs SoC ([2]; Study 301, Full Analysis Set): 0.4 (0.51) | UWDRS Part III (0-175), Change from Baseline at 48 weeks, Mean ([2]; Study 301, Full Analysis Set): −2.20 | UWDRS Part III (0-175), Difference at 48 weeks, LSM (SE), BC-TTM vs SoC ([2]; Study 301, Full Analysis Set): −0.09 (1.322) | UWDRS Part III functional subscale (0-10), Change from Baseline at 48 weeks, Mean ([2]; Study 301, Full Analysis Set): −0.147 | UWDRS Part III functional subscale (0-10), Difference at 48 weeks, LSM (SE), BC-TTM vs SoC ([2]; Study 301, Full Analysis Set): −0.067 (0.1344) | UWDRS Part III-arising from chair (0-4), Change from Baseline at 48 weeks, Mean ([2]; Study 301, Full Analysis Set): 0.0 | UWDRS Part III-arising from chair (0-4), Difference at 48 weeks, LSM (SE), BC-TTM vs SoC ([2]; Study 301, Full Analysis Set): 0.0 (0.06) | UWDRS Part III-gait (0-10), Change from Baseline at 48 weeks, Mean ([2]; Study 301, Full Analysis Set): −0.06 | UWDRS Part III-gait (0-10), Difference at 48 weeks, LSM (SE), BC-TTM vs SoC ([2]; Study 301, Full Analysis Set): −0.15 (0.192) | UWDRS Part III-handwriting (0-4), Change from Baseline at 48 weeks, Mean ([2]; Study 301, Full Analysis Set): −0.1 | UWDRS Part III-handwriting (0-4), Difference at 48 weeks, LSM (SE), BC-TTM vs SoC ([2]; Study 301, Full Analysis Set): −0.1 (0.09) | UWDRS Part III-speech (0-4), Change from Baseline at 48 weeks, Mean ([2]; Study 301, Full Analysis Set): −0.1 | UWDRS Part III-speech (0-4), Difference at 48 weeks, LSM (SE), BC-TTM vs SoC ([2]; Study 301, Full Analysis Set): 0.0 (0.07) | key secondary efficacy endpoints, BC-TTM versus SoC ([2]; Study 301, after adjusting for multiplicity (hierarchical testing)): none of the key secondary efficacy endpoints were statistically significantly different | UWDRS Part III, Week 48 Change from Baseline, LSM Diff, BC-TTM vs SoC [2, 7]: −0.79 | UWDRS Part III, Week 48 Change from Baseline, Mean [2, 7]: −2.86 | UWDRS Part III, Week 48 Change from Baseline, Median [2, 7]: −2.00 | UWDRS Part III, Week 48 Change from Baseline, LSM ([2]; Study 301, patients symptomatic at baseline, Cohort 1, MMRM): −2.68 | UWDRS Part III, Week 48 Change from Baseline, LSM Diff (SE), BC-TTM vs SoC [2, 8]: 0.05 (5.041) | UWDRS Part III, Week 48 Change from Baseline, Mean [2, 8]: −3.10 | UWDRS Part III, Week 48 Change from Baseline, Median [2, 8]: −3.00 | UWDRS Part III, Week 48 Change from Baseline, LSM ([2]; Study 301, patients symptomatic at baseline, Cohort 2, MMRM): 1.43 | UWDRS Part III, Week 48 Change from Baseline, LSM Diff, BC-TTM vs SoC [2, 9]: −0.33 | UWDRS Part III, Week 48 Change from Baseline, Mean [2, 9]: −2.91 | UWDRS Part III, Week 48 Change from Baseline, Median [2, 9]: −2.00 | UWDRS Part III, Week 48 Change from Baseline, LSM ([2]; Study 301, patients symptomatic at baseline, Overall, MMRM): −1.54
